Format in all cases: cell-based
For test [1], the system named is human dendritic cells (h-DCs). In words: Cellular Functional Assay II: secreted IFN-β from human dendritic cells. The note with it: h-DC. The protocol: (§1) Activation of STING in primary cells was determined by measuring levels of secreted IFN-β from human monocyte-derived macrophages (h-MDMs)/dendritic cells (h-DCs) and/or mouse dendritic cells (m-DCs) after treatment with A.
(§2) Human CD14+ cells were first isolated from human peripheral blood mononuclear cells (PBMCs) with Stemcell Easysep Monocyte Isolation™ kit. Human CD14+ cells were kept in conditioned media for 7-12 days to generate h-MDMs and h-DCs before use. After harvesting from C57BL/6 mouse femurs, bone marrow cells were culture in conditioned media for 7 days to generate m-DCs before use.
(§3) The Culture conditions for the various types of cells whereas noted in Table 2:
(§4) 0.5×10^6 cells in 50 ul buffer (50 mM HEPES, pH7.0; 100 mM KCl; 3 mM MgCl2, 0.1 mM DTT; 85 mM Sucrose; 0.2% BSA, 1 mM ATP) in 96-well round bottom plate. Compound (formulated in DMSO) or DMSO (control) were added into each well and the plate incubate at 37° C. for 30 minutes. Cells were washed twice with 100 uL of fresh media and incubated at 37° C. for an additional 6 hours. After 6 hour of incubation, the supernatant was collected and a Cytometry Bead Assay™ (CBA, BioLegend) was used to measure […] levels.

Test [2] deals with mouse dendritic cells (m-DCs). The test is described as follows: Cellular Functional Assay II: secreted IFN-β from mouse dendritic cells. Particulars: m-DC. The protocol: as §1, §2, §3, §4
The subject of test [3] is human monocyte-derived macrophages (h-MDMs). In words: Cellular Functional Assay II: secreted IFN-β from human monocyte-derived macrophages. Particulars: h-MDM. As for the experimental part: as §1, §2, §3, §4
The next test has as its target T1, mSTING-wt (Mus musculus, UniProt Q3TBT3).
T1 sequence (Q3TBT3 1-378): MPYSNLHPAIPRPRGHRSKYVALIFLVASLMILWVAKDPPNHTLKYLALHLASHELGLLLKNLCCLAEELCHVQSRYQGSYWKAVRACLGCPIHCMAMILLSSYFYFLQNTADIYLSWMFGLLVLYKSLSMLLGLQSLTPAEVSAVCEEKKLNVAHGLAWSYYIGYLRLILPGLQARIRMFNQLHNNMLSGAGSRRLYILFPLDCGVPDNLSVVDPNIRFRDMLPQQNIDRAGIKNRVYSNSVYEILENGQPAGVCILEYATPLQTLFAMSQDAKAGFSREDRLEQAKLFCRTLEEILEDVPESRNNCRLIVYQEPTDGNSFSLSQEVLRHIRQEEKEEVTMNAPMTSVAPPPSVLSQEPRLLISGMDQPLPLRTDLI
In words: Cellular Functional Assay I: ISRE-SEAP reporter in HEK-293T-Dual Null cells transfected with mouse STING. The note with it: SEAP reporter, HEK-293T-Dual Null, mSTING-wt; read-out: EC50 mSTING-wt.

The next test deals with T2, hSTING-Q (Homo sapiens, UniProt Q86WV6, R293Q).
T2 construct: expressed in transfected cells
T2 sequence (Q86WV6 whole entry R293Q): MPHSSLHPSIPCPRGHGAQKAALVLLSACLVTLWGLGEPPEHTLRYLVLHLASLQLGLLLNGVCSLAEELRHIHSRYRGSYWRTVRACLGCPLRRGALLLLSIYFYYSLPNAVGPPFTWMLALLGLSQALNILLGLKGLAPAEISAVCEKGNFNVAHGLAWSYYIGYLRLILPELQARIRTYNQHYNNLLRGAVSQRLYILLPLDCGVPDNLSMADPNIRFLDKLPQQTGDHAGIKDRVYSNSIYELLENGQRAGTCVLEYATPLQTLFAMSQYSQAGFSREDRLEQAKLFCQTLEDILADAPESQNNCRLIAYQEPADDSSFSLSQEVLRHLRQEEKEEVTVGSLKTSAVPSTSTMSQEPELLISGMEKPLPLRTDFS
The test is described as follows: Cellular Functional Assay I: ISRE-SEAP reporter, hSTING-Q allele.

A further test concerns the target hSTING-wt (Homo sapiens, UniProt Q86WV6). The test is described as follows: Cellular Functional Assay I: ISRE-SEAP reporter in HEK-293T-Dual Null cells transfected with hSTING-wt. Particulars: HEK-293T-Dual Null, hSTING-wt.
A further test deals with hSTING-HAQ (Homo sapiens, UniProt Q86WV6, G230A/H232R/R293Q/R71H). In words: Cellular Functional Assay I: ISRE-SEAP reporter in HEK-293T-Dual Null cells transfected with hSTING-HAQ. Particulars: HEK-293T-Dual Null, hSTING-HAQ.
hSTING-HAQ, sequence (Q86WV6 whole entry R71H/G230A/H232R/R293Q): as the sequence (Q86WV6 whole entry R293Q) above, with R71H, G230A, H232R counted along it
For another test, the target named is T3, hSTING-AQ (Homo sapiens, UniProt Q86WV6, G230A/R293Q).
T3 construct: expressed in transfected cells
T3 sequence (Q86WV6 whole entry G230A/H232R/R293Q): as the sequence (Q86WV6 whole entry R293Q) above, with G230A, H232R counted along it
The test is described as follows: Cellular Functional Assay I: ISRE-SEAP reporter, hSTING-AQ allele.

In a further test the target is hSTING-H232 (Homo sapiens, UniProt Q86WV6). The test is described as follows: Cellular Functional Assay I: ISRE-SEAP reporter in HEK-293T-Dual Null cells transfected with hSTING-H232. The note with it: HEK-293T-Dual Null, hSTING-H232.
hSTING-H232, sequence (Q86WV6 whole entry): as the sequence (Q86WV6 whole entry R293Q) above, with Q293R counted along it
A further test deals with human PBMCs. In words: Cellular Functional Assay III: IFN-β production from human PBMCs. The note with it: PBMC. The protocol:
Frozen human PBMCs (BioIVT Inc.) were thawed first in a 37° C. water bath, then washed with RPMI/10% FBS/2 mM EDTA medium twice before establishing a viable cell count by Trypan Blue. The final cell density for each donor was 5×10^6 cells per well with RPMI/10% FBS medium in a 96 well u-bottom plate.
Human PBMCs were then incubated with testing compounds with indicated concentrations and control for 4 hours at 37° C. in cell culture incubator. After incubation, supernatant was collected and used for measuring induced cytokine level by cytometric bead array analysis.

The mark [4] stands for this setting: Donor 1, 4 hours, read-out: Potency (IFN-β production) in Human PBMCs (EC50s) Donor 1.
Setting [5] is: Donor 2, 4 hours, read-out: Potency (IFN-β production) in Human PBMCs (EC50s) Donor 2.
Setting [6] is: Donor 3, 4 hours, read-out: Potency (IFN-β production) in Human PBMCs (EC50s) Donor 3.
[7] abbreviates: Donor 4, 4 hours, read-out: Potency (IFN-β production) in Human PBMCs (EC50s) Donor 4.

pEC50: −log10 of the molar value. Where two headings read alike, the source gives them in different places.

This note sets out measurements from patent US20200031825A1, “HETEROAROMATIC-FUSED IMIDAZOLYL AMIDES, COMPOSITIONS AND USES THEREOF AS STING AGONISTS” (Trillium Therapeutics Inc., priority 2018, published 2020).

hSTING-wt, sequence (Q86WV6 whole entry H232R): as the sequence (Q86WV6 whole entry R293Q) above, with H232R, Q293R counted along it

Turning to `Nc1nc2c(ncn2[C@@H]2O[C@@H]3COP(=O)(O)O[C@H]4[C@@H](O)[C@H](n5cnc6c(N)ncnc65)O[C@@H]4COP(=O)(O)O[C@@H]2[C@@H]3O)c(=O)[nH]1` [2′3-cGAMP, reference compound], the IFN-β level in test [1] (0.1 uM) is under 10 pg/mL; in test [1] (10 uM), under 50 pg/mL; in test [2] (0.1 uM), under 300 pg/mL; in [2] (1 uM) it was <1,000 pg/ml; in test [2] (10 uM), <3,000 pg/ml; in [3] (0.1 uM), under 10 pg/mL. The values for the IFN-β level in [3] (1 uM) and in test [3] (10 uM) were under 20 pg/mL and under 50 pg/mL, respectively.

Turning to `CCn1nc(C)cc1C(=O)Nc1nc2cc(C(N)=O)cnc2n1C/C=C/Cn1c(NC(=O)c2cc(C)nn2CC)nc2cc(C(N)=O)cc(OCCCN3CCOCC3)c21` [Compound T, 3-[(E)-4-[5-carbamoyl-2-[(2-ethyl-5-methyl-pyrazole-3-carbonyl)amino]-7-(3-morpholinopropoxy)benzimidazol-1-yl]but-2-enyl]-2-[(2-ethyl-5-methyl-pyrazole-3-carbonyl)amino]imidazo[4,5-b]pyridine-6-carboxamide], the pEC50 at mSTING-wt, on hSTING-Q, at hSTING-wt, on hSTING-HAQ, on hSTING-AQ and at hSTING-H232 was 6.30 to 9.00 each time. The pEC50 is 6.30 to 7.00 in the test with human PBMCs (setting [4]), over 7.00 in the test on human PBMCs (setting [5]), over 7.00 in the test with human PBMCs (setting [6]) and 6.30 to 7.00 with human PBMCs (setting [7]).

With `CCn1nc(C)cc1C(=O)Nc1nc2cc(C(N)=O)cnc2n1C/C=C/Cn1c(NC(=O)c2cc(C)nn2CC)nc2cc(C(N)=O)cc(OCCCNCCOC(F)F)c21` [Compound U, 3-[(E)-4-[5-carbamoyl-7-[3-[2-(difluoromethoxy)ethylamino]propoxy]-2-[(2-ethyl-5-methyl-pyrazole-3-carbonyl)amino]benzimidazol-1-yl]but-2-enyl]-2-[(2-ethyl-5-methyl-pyrazole-3-carbonyl)amino]imidazo[4,5-b]pyridine-6-carboxamide], the pEC50 at mSTING-wt, at hSTING-Q, at hSTING-wt, on hSTING-HAQ, at hSTING-AQ and at hSTING-H232 was 6.30 to 9.00 each time.

Consider `CCn1nc(C)cc1C(=O)Nc1nc2cc(C(N)=O)cnc2n1C/C=C/Cn1c(NC(=O)c2cc(C)nn2CC)nc2cc(C(N)=O)cc(OCCCN(C)CCOC)c21` [Compound V, 3-[(E)-4-[5-carbamoyl-2-[(2-ethyl-5-methyl-pyrazole-3-carbonyl)amino]-7-[3-[2-methoxyethyl(methyl)amino]propoxy]benzimidazol-1-yl]but-2-enyl]-2-[(2-ethyl-5-methyl-pyrazole-3-carbonyl)amino]imidazo[4,5-b]pyridine-6-carboxamide], for which the pEC50 at mSTING-wt, on hSTING-Q, at hSTING-wt, at hSTING-HAQ, at hSTING-AQ and on hSTING-H232 was 6.30 to 9.00 each time.

In the case of `[2H]C1([2H])OC([2H])([2H])C([2H])([2H])N(CCCOc2cc(C(N)=O)cc3nc(NC(=O)c4cc(C)nn4CC)n(C/C=C/Cn4c(NC(=O)c5cc(C)nn5CC)nc5cc(C(N)=O)cnc54)c23)C1([2H])[2H]` [Compound W, 3-[(E)-4-[5-carbamoyl-2-[(2-ethyl-5-methyl-pyrazole-3-carbonyl)amino]-7-[3-(2,2,3,3,5,5,6,6-octadeuteriomorpholin-4-yl)propoxy]benzimidazol-1-yl]but-2-enyl]-2-[(2-ethyl-5-methyl-pyrazole-3-carbonyl)amino]imidazo[4,5-b]pyridine-6-carboxamide], the pEC50 at mSTING-wt, at hSTING-Q, on hSTING-wt, on hSTING-HAQ, on hSTING-AQ and at hSTING-H232 was 6.30 to 9.00 throughout. In addition, the pEC50 in the test on human PBMCs (setting [4]) is 6.30 to 7.00; in the test with human PBMCs (setting [5]) it was 6.30 to 7.00; with human PBMCs (setting [6]), over 7.00; in the test on human PBMCs (setting [7]), 6.30 to 7.00.

As to `CCn1nc(C)cc1C(=O)Nc1nc2cc(C(N)=O)cnc2n1C/C=C/Cn1c(NC(=O)c2cc(C)nn2CC)nc2cc(C(N)=O)cc(OCCCN3CCN(C(C)=O)CC3)c21` [Compound X, 3-[(E)-4-[7-[3-(4-acetylpiperazin-1-yl)propoxy]-5-carbamoyl-2-[(2-ethyl-5-methyl-pyrazole-3-carbonyl)amino]benzimidazol-1-yl]but-2-enyl]-2-[(2-ethyl-5-methyl-pyrazole-3-carbonyl)amino]imidazo[4,5-b]pyridine-6-carboxamide], the pEC50 at mSTING-wt, at hSTING-Q, on hSTING-wt, on hSTING-HAQ, on hSTING-AQ and on hSTING-H232 was 6.30 to 9.00 throughout. Also, the pEC50 in the test on human PBMCs (setting [4]), with human PBMCs (setting [5]), in the test on human PBMCs (setting [6]) and with human PBMCs (setting [7]) was 6.30 to 7.00 each time.

Consider `CCn1nc(C)cc1C(=O)Nc1nc2cc(C(N)=O)cnc2n1C/C=C/Cn1c(NC(=O)c2cc(C)nn2CC)nc2cc(C(N)=O)cc(OCCCN3CCC[C@H]3COC(F)F)c21` [Compound Y, 3-[(E)-4-[5-carbamoyl-7-[3-[(2S)-2-(difluoromethoxymethyl)pyrrolidin-1-yl]propoxy]-2-[(2-ethyl-5-methyl-pyrazole-3-carbonyl)amino]benzimidazol-1-yl]but-2-enyl]-2-[(2-ethyl-5-methyl-pyrazole-3-carbonyl)amino]imidazo[4,5-b]pyridine-6-carboxamide], for which the pEC50 at mSTING-wt is 6.30 to 9.00; on hSTING-Q, 6.30 to 9.00; on hSTING-wt, over 9.00; at hSTING-HAQ, 6.30 to 9.00; on hSTING-AQ, 6.30 to 9.00; on hSTING-H232, over 9.00. In addition, the pEC50 with human PBMCs (setting [4]), in the test with human PBMCs (setting [5]), in the test with human PBMCs (setting [6]) and in the test with human PBMCs (setting [7]) was over 7.00 each time.

For the compound `CCn1nc(C)cc1C(=O)Nc1nc2cc(C(N)=O)cnc2n1C/C=C/Cn1c(NC(=O)c2cc(C)nn2CC)nc2cc(C(N)=O)cc(OCCCN3CCCOCC3)c21` [Compound Z, 3-[(E)-4-[5-carbamoyl-2-[(2-ethyl-5-methyl-pyrazole-3-carbonyl)amino]-7-[3-(1,4-oxazepan-4-yl)propoxy]benzimidazol-1-yl]but-2-enyl]-2-[(2-ethyl-5-methyl-pyrazole-3-carbonyl)amino]imidazo[4,5-b]pyridine-6-carboxamide], the pEC50 at mSTING-wt, at hSTING-Q, at hSTING-wt, on hSTING-HAQ, at hSTING-AQ and on hSTING-H232 was 6.30 to 9.00 each time.
